Test results reported in publication PMC8516514 (Clinical Infectious Diseases: An Official Publication of …, 2020).
Where “and” joins values, the source holds several entries; their conditions need not be identical. Equal entries are not always repeated.

Columns and labels:
[1] = baseline ALT 27–45 IU/mL; cited from earlier work
HBV [2] = details: cited from earlier work
[3] = Safety and tolerability in patients with chronic HBV infection; assay type: in vivo, human; details: for effect of silibinin and glutathione treatment on ALT flares: subjects with ALT flares, decline in ALT level
HBV [4] = test: Change in serum HBV pgRNA, phase 1b study in patients with chronic HBV infection; assay type: in vivo, human
HBV [5] = test: Change in serum HBV DNA, phase 1b study in patients with chronic HBV infection; assay type: in vivo, human
HBV [6] = test: Change in serum HBcrAg, phase 1b study in patients with chronic HBV infection; assay type: in vivo, human
HBV [7] = test: Change in serum HBsAg, phase 1b study in patients with chronic HBV infection; assay type: in vivo, human
HBV in HepG2.2.15 cell = details: cited from earlier work
[8] = Phase Ia pharmacokinetics of GLS4 in healthy subjects; assay type: in vivo, human; details: for mean steady-state Cmin: unpublished observations
[9] = Plasma pharmacokinetics of GLS4 in patients with chronic HBV infection; assay type: in vivo, human; details: for AUC0–24 / AUC0–t / Cmax / Ctrough / t1/2 / Df (degree of fluctuation): mean (CV)
HBV [10] = tested on: HBV
[11] = Phase Ia tolerability in healthy subjects; assay type: in vivo, human; details: 9 days, unpublished observations
HBV [12] = test: Change in serum HBeAg, phase 1b study in patients with chronic HBV infection; assay type: in vivo, human
[13] = preclinical study in dogs; cited from earlier work
HBV [14] = details: after NVR 3–778 treatment; cited from earlier work
[15] = cohort C: entecavir 0.5 mg/day, n=8
[16] = cohort A (GLS4 120 mg/day + ritonavir 100 mg/day), Day 1 (24 Hours)
[17] = cohort A (GLS4 120 mg/day + ritonavir 100 mg/day), Day 28 (24 Hours)
[18] = cohort A (GLS4 120 mg/day + ritonavir 100 mg/day), Day 28 (120 Hours)
[19] = cohort B (GLS4 240 mg/day + ritonavir 100 mg/day), Day 1 (24 Hours)
[20] = cohort B (GLS4 240 mg/day + ritonavir 100 mg/day), Day 28 (24 Hours)
[21] = cohort B (GLS4 240 mg/day + ritonavir 100 mg/day), Day 28 (120 Hours)
[22] = cohort A: GLS4 120 mg/day + ritonavir 100 mg/day
[23] = cohort B: GLS4 240 mg/day + ritonavir 100 mg/day
[24] = cohort A: GLS4 120 mg/day + ritonavir 100 mg/day, n=8
[25] = cohort B: GLS4 240 mg/day + ritonavir 100 mg/day, n=8

Structure (SMILES): O=C(NCc1cnc(C(F)(F)F)s1)c1ccc2c(c1)NC(=O)c1ccccc1S2(=O)=O [ABI-H0731]
- ALT flare in phase I clinical study [1]: without ALT flare

Structure (SMILES): N[C@@H](CCC(=O)N[C@@H](CS)C(=O)NCC(=O)O)C(=O)O [glutathione, reference compound]
- antiviral effects (HBV [2]): no antiviral effects
- effect of silibinin and glutathione treatment on ALT flares [3]: effective in reducing ALT flares

Structure (SMILES): C=C1[C@H](CO)[C@@H](O)C[C@@H]1n1cnc2c(=O)[nH]c(N)nc21 [entecavir, reference compound]
- mean decline in pgRNA after 28 days of treatment (HBV [4]; cohort C: entecavir 0.5 mg/day): −0.96 log10 copies/mL
- mean decline in HBV DNA after 28 days of treatment (HBV [5]; cohort C: entecavir 0.5 mg/day): −3.5 log10 IU/mL
- patients who experienced an adverse reaction [3, 15]: 7
- patients withdrawn due to ALT flare [3, 15]: 1
- subjects with alanine aminotransferase flare [3, 15]: 3
- mean decline in HBcrAg after 28 days of treatment (HBV [6]; cohort C: entecavir 0.5 mg/day): −0.44 log10 U/mL
- mean decline in HBsAg after 28 days of treatment (HBV [7]; cohort C: entecavir 0.5 mg/day): −0.33 log10 IU/mL

Structure (SMILES): CCOC(=O)C1=C(CN2CCOCC2)NC(c2nccs2)=NC1c1ccc(F)cc1Br (centres unmarked) [GLS4]
- 90% effective concentration (EC90) (HBV in HepG2.2.15 cell; HepG2.2.15 cell, after correction with Human plasma protein binding): 0.0558 mg/L
- anti-HBV activity in vitro compared with Bay 41–4109 (HBV in HepG2.2.15 cell; in vitro): better anti-HBV activity in vitro than Bay 41–4109
- mean steady-state Cmin ([8]; GLS4 120 mg/day + ritonavir 100 mg/day for 9 days): 0.1879 µg/mL
- mean steady-state Cmin ([8]; GLS4 240 mg/day + ritonavir 100 mg/day for 9 days): 0.3007 µg/mL
- t1/2 of GLS4 monotherapy ([8]; without ritonavir, data not shown): 1.09 to 15.8 h
- Median Tmax (minimum–maximum) [9, 16]: 3 (1.5,4) hours
- AUC0–24 [9, 16]: 4268 (27) ng × hours/mL
- AUC0–t [9, 16]: 4268 (27) ng × hours/mL
- Cmax [9, 16]: 885 (27) ng/mL
- Median Tmax (minimum–maximum) [9, 17]: 3 (0.5, 4) hours
- AUC0–24 [9, 17]: 7871 (56) ng × hours/mL
- AUC0–t [9, 17]: 7871(56) ng × hours/mL
- Cmax [9, 17]: 865 (66) ng/mL
- Ctrough [9, 17]: 218(59) ng/mL
- t1/2 [9, 17]: 32.1(11.7) hours
- Median Tmax (minimum–maximum) [9, 18]: 3 (0.5, 4) hours
- AUC0–24 [9, 18]: 7871 (56) ng × hours/mL
- Cmax [9, 18]: 865 (66) ng/mL
- Df (degree of fluctuation) [9, 18]: 204 (36) %
- t1/2 [9, 18]: 64.2 (14.8) hours
- Median Tmax (minimum–maximum) [9, 19]: 3.5 (2, 4) hours
- AUC0–24 [9, 19]: 8055 (34) ng × hours/mL
- AUC0–t [9, 19]: 8055 (34) ng × hours/mL
- Cmax [9, 19]: 1447 (39) ng/mL
- t1/2 [9, 19]: 10.6 (3.3) hours
- Median Tmax (minimum–maximum) [9, 20]: 3 (2, 4) hours
- Cmax [9, 20]: 1461 (24) ng/mL
- Ctrough [9, 20]: 205(63) ng/mL
- t1/2 [9, 20]: 16.3(7.6) hours
- Median Tmax (minimum–maximum) [9, 21]: 3 (2, 4) hours
- Cmax [9, 21]: 1461 (24) ng/mL
- Df (degree of fluctuation) [9, 21]: 265 (33) %
- t1/2 [9, 21]: 67.3 (24.2) hours
- accumulation rate with AUC0–24 (day 28 vs day 1) ([9]; cohorts A and B): 1.6–2.0
- accumulation rate with Cmax (day 28 vs day 1) ([9]; cohorts A and B): 1.1–1.2
- accumulation rate ([9]; cohorts A and B, day 28 vs day 1, AUC0–24 or Cmax): 1.1–2.0
- time to maximum GLS4 concentration (Tmax) ([9]; cohorts A and B, first and last dose (days 1 and 28), with ritonavir): 3–3.5 hours and ~ 3 hours
- mean trough concentration (Ctrough) of GLS4 ([9]; cohorts A and B, steady state, with ritonavir 100 mg/day): 0.205 to 0.218 µg/mL
- t1/2 of GLS4 when combined with ritonavir ([9]; patients, cohorts A and B): 64.2 to 67.3 h
- efficacy in patients resistant to lamivudine or adefovir dipivoxil treatment (HBV [10]; cohort A: patient 013, cohort B: patient 020): effective
- GLS4 resistance among patients (HBV [10]; cohorts A and B, 28 days of treatment): not observed
- tolerability of GLS4 (120 or 240 mg) in combination with 100 mg ritonavir [11]: tolerated
- mean decline in HBeAg after 28 days of treatment (HBV [12]; [22]): −0.25 log10 IU/mL
- mean decline in HBeAg after 28 days of treatment (HBV [12]; [23]): −0.30 log10 IU/mL
- mean decline in pgRNA after 28 days of treatment (HBV [4]; [22]): −0.75 log10 copies/mL
- mean decline in pgRNA after 28 days of treatment (HBV [4]; [23]): −1.78 log10 copies/mL
- decline in HBV DNA levels in patients with poor response (HBV [5]; cohort A (GLS4 120 mg/day + ritonavir 100 mg/day), patients 003, 005 and 022): < 0.5 log10 IU/mL
- mean decline in HBV DNA after 28 days of treatment (HBV [5]; [22]): −1.42 log10 IU/mL
- mean decline in HBV DNA after 28 days of treatment (HBV [5]; [23]): −2.13 log10 IU/mL
- mean change in HBV DNA following GLS4 treatment (HBV [5]; cohorts A and B (GLS4 120 or 240 mg/day + ritonavir 100 mg/day, 28 days)): −1.42 to −2.13 log10 IU/mL
- tolerability in patients with chronic HBV infection ([3]; 120 mg GLS4 (+ ritonavir 100 mg), 28 days): tolerated
- frequency of grade 3–4 adverse reactions [3, 24]: 2
- patients who experienced an adverse reaction [3, 24]: 5
- patients withdrawn due to ALT flare [3, 24]: 1 and 1/8
- subjects with alanine aminotransferase flare [3, 24]: 2 and 2/8
- frequency of grade 3–4 adverse reactions [3, 25]: 7
- patients who experienced an adverse reaction [3, 25]: 6
- patients withdrawn due to ALT flare [3, 25]: 2 and 2/8
- presence of SAEs [3, 25]: 1
- subjects with alanine aminotransferase flare [3, 25]: 3 and 3/8
- mean decline in HBcrAg after 28 days of treatment (HBV [6]; [22]): −0.23 log10 U/mL
- mean decline in HBcrAg after 28 days of treatment (HBV [6]; [23]): −0.5 log10 U/mL and −0.50 log10 U/mL
- tolerability [13]: well tolerated
- mean decline in HBsAg after 28 days of treatment (HBV [7]; [22]): −0.06 log10 IU/mL
- mean decline in HBsAg after 28 days of treatment (HBV [7]; [23]): −0.14 log10 IU/mL

Structure (SMILES): O=C(Nc1cc(F)c(F)c(F)c1)c1ccc(F)c(S(=O)(=O)N2CCC(O)CC2)c1 [NVR 3–778]
- mean change in HBV DNA (HBV [14]): −1.43 log10 IU/mL
- mean decline in HBeAg (HBV [14]): −0.09 log10 IU/mL
- mean decline in HBsAg (HBV [14]): −0.02 log10 IU/mL

Structure (SMILES): COc1cc(C2Oc3cc([C@H]4Oc5cc(O)cc(O)c5C(=O)[C@@H]4O)ccc3OC2CO)ccc1O (some centres unmarked) [silibinin, reference compound]
- antiviral effects (HBV [2]): no antiviral effects
- effect of silibinin and glutathione treatment on ALT flares [3]: effective in reducing ALT flares
